Tests used:
Experiment in all cases: β-arrestin GPCR screen (PathHunter/GPCRmax), antagonist mode
168 GPCRs [1] = biological target: 168 GPCRs (Homo sapiens, UniProt O95838); conditions: GLP2R; Antagonist; 1 uM
168 GPCRs [2] = biological target: 168 GPCRs (Homo sapiens, UniProt Q01726); conditions: GPCR MC1R; Antagonist mode; 10 uM
168 GPCRs [3] = biological target: 168 GPCRs (Homo sapiens, UniProt P41586); conditions: ADCYAP1R1; Antagonist; 1 uM
168 GPCRs [4] = biological target: 168 GPCRs (Homo sapiens, UniProt Q9NSD7); conditions: GPCR RXFP3; Antagonist mode; 10 uM
168 GPCRs [5] = biological target: 168 GPCRs (Homo sapiens, UniProt P32249); conditions: GPCR EBI2; Antagonist mode; 10 uM
168 GPCRs [6] = biological target: 168 GPCRs (Homo sapiens, UniProt P25090); conditions: GPCR FPRL1; Antagonist mode; 10 uM
168 GPCRs [7] = biological target: 168 GPCRs (Homo sapiens, UniProt P47211); conditions: GPCR GALR1; Antagonist mode; 10 uM
168 GPCRs [8] = biological target: 168 GPCRs (Homo sapiens, UniProt P50391); conditions: PPYR1; Antagonist; 1 uM
168 GPCRs [9] = biological target: 168 GPCRs (Homo sapiens, UniProt P29371); conditions: GPCR TACR3; Antagonist mode; 10 uM
168 GPCRs [10] = biological target: 168 GPCRs (Homo sapiens, UniProt P47872); conditions: SCTR; Antagonist; 1 uM
168 GPCRs [11] = biological target: 168 GPCRs (Homo sapiens, UniProt Q8NFJ6); conditions: GPCR PROKR2; Antagonist mode; 10 uM
168 GPCRs [12] = biological target: 168 GPCRs (Homo sapiens, UniProt P35367); conditions: GPCR HRH1; Antagonist mode; 10 uM
168 GPCRs [13] = biological target: 168 GPCRs (Homo sapiens, UniProt Q96RI0); conditions: F2RL3; Antagonist; 1 uM
168 GPCRs [14] = biological target: 168 GPCRs (Homo sapiens, UniProt Q8TDS5); conditions: GPCR OXER1; Antagonist mode; 10 uM
168 GPCRs [15] = biological target: 168 GPCRs (Homo sapiens, UniProt P41968); conditions: GPCR MC3R; Antagonist mode; 10 uM
168 GPCRs [16] = biological target: 168 GPCRs (Homo sapiens, UniProt Q99500); conditions: GPCR EDG3; Antagonist mode; 10 uM
168 GPCRs [17] = biological target: 168 GPCRs (Homo sapiens, UniProt P41587); conditions: GPCR VIPR2; Antagonist mode; 10 uM
168 GPCRs [18] = biological target: 168 GPCRs (Homo sapiens, UniProt P30988); conditions: CALCR-RAMP3, Antagonist
168 GPCRs [19] = biological target: 168 GPCRs (Homo sapiens, UniProt Q969F8); conditions: KISS1R; Antagonist; 1 uM
168 GPCRs [20] = biological target: 168 GPCRs (Homo sapiens, UniProt P48039); conditions: GPCR MTNR1A; Antagonist mode; 10 uM
168 GPCRs [21] = biological target: 168 GPCRs (Homo sapiens, UniProt P21462); conditions: FPR1; Antagonist; 1 uM
168 GPCRs [22] = biological target: 168 GPCRs (Homo sapiens, UniProt P55085); conditions: GPCR F2RL1; Antagonist mode; 10 uM
168 GPCRs [23] = biological target: 168 GPCRs (Homo sapiens, UniProt Q9HBW0); conditions: EDG4; Antagonist; 1 uM
168 GPCRs [24] = biological target: 168 GPCRs (Homo sapiens, UniProt P41231); conditions: GPCR P2RY2; Antagonist mode; 10 uM
168 GPCRs [25] = biological target: 168 GPCRs (Homo sapiens, UniProt Q99705); conditions: GPCR MCHR1; Antagonist mode; 10 uM

Chain of 168 GPCRs (Homo sapiens, UniProt P30988) (P30988 25-474): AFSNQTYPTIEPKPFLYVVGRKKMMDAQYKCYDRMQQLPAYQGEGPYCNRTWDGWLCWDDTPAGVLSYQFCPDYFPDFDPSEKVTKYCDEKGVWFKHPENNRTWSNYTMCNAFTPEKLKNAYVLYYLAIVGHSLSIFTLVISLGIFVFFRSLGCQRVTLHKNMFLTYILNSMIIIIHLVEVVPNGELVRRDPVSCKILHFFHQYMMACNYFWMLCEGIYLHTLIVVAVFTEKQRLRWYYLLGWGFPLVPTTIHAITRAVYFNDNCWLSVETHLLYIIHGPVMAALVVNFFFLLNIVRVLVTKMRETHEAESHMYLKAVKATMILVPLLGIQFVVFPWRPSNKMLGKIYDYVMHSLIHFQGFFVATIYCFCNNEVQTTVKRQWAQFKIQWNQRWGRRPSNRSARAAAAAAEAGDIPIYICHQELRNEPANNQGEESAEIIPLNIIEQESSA
Chain of 168 GPCRs (Homo sapiens, UniProt P41231) (P41231 whole entry): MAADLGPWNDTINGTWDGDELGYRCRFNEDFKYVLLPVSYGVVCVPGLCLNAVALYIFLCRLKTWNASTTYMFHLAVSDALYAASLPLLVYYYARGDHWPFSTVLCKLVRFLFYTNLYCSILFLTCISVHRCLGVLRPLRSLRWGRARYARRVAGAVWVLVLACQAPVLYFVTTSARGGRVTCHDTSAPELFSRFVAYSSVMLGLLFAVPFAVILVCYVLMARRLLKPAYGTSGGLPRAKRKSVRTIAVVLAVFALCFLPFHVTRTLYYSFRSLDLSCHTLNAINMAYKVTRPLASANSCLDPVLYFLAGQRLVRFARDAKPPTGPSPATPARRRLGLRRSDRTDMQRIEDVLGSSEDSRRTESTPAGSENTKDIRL
Chain of 168 GPCRs (Homo sapiens, UniProt P47211) (P47211 whole entry): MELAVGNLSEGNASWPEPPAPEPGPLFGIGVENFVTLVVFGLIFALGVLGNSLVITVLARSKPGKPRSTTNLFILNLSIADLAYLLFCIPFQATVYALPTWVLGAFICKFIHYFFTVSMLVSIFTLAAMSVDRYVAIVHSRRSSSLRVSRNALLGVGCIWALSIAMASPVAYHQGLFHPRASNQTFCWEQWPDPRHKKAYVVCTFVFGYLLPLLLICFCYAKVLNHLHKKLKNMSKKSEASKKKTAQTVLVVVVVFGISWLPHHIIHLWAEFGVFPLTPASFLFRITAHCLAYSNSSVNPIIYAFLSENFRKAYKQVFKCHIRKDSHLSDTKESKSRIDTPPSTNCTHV
Chain of 168 GPCRs (Homo sapiens, UniProt Q8TDS5) (Q8TDS5 whole entry): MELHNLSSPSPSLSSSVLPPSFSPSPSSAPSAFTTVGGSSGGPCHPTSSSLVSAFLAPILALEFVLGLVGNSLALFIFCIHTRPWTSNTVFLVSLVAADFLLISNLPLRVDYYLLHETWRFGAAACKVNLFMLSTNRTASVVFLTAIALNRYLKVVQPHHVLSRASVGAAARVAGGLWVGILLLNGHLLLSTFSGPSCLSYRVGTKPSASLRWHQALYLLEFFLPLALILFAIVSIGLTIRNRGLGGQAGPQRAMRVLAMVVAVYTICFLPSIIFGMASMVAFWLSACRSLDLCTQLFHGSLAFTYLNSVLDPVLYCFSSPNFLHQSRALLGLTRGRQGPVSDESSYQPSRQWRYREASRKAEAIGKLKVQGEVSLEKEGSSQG
Chain of 168 GPCRs (Homo sapiens, UniProt P35367) (P35367 whole entry): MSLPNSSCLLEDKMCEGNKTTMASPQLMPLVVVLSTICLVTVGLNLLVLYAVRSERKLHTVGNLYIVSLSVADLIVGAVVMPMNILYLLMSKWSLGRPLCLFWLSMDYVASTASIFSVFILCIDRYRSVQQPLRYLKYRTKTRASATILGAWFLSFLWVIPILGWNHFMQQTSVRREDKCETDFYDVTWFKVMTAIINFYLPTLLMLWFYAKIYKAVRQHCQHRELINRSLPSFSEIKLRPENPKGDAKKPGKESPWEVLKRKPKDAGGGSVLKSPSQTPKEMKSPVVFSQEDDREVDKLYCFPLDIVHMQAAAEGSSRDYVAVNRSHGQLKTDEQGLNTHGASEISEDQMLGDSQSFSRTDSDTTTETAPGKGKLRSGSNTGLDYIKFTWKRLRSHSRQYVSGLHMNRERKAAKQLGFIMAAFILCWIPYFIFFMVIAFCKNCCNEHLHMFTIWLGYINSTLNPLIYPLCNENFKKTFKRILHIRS
Chain of 168 GPCRs (Homo sapiens, UniProt P41587) (P41587 24-438): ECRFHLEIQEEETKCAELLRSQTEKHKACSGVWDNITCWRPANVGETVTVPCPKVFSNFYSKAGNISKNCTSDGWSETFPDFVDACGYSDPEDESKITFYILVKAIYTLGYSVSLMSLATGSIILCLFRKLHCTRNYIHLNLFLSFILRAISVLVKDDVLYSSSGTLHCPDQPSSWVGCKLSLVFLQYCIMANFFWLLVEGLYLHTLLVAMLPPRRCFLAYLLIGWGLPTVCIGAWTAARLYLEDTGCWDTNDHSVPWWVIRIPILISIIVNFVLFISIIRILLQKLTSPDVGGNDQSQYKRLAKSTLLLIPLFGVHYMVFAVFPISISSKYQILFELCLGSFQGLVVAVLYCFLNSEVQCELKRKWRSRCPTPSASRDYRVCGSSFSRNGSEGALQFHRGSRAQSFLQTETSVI
Chain of 168 GPCRs (Homo sapiens, UniProt P21462) (P21462 whole entry): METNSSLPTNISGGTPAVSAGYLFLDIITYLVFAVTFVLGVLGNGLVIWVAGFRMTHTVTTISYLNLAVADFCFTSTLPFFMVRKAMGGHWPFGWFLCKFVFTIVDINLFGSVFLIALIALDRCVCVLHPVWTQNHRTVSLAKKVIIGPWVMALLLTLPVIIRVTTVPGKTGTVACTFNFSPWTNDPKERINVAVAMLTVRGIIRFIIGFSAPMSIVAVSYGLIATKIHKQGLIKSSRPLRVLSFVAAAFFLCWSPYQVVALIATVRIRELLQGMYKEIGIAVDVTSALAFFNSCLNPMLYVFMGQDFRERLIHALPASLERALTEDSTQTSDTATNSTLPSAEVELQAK
Chain of 168 GPCRs (Homo sapiens, UniProt Q9HBW0) (Q9HBW0 whole entry): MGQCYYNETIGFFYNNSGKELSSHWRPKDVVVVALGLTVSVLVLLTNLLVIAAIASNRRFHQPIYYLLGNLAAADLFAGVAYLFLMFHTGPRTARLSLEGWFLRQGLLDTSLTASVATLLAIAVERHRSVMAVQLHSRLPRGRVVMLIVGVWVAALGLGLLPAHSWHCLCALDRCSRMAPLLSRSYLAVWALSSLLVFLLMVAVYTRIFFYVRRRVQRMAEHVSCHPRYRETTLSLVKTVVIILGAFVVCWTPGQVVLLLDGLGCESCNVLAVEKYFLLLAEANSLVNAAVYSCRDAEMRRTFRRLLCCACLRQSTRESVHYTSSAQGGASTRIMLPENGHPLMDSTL
Chain of 168 GPCRs (Homo sapiens, UniProt P25090) (P25090 whole entry): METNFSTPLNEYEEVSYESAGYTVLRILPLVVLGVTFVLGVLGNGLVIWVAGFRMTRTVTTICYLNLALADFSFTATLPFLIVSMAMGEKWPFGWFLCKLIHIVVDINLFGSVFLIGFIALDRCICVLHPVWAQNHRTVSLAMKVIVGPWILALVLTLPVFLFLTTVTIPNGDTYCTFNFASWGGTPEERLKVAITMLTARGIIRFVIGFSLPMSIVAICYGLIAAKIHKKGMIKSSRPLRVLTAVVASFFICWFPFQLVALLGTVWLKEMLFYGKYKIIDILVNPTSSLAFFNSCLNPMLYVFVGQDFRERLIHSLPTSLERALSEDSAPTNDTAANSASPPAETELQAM
Chain of 168 GPCRs (Homo sapiens, UniProt Q8NFJ6) (Q8NFJ6 whole entry): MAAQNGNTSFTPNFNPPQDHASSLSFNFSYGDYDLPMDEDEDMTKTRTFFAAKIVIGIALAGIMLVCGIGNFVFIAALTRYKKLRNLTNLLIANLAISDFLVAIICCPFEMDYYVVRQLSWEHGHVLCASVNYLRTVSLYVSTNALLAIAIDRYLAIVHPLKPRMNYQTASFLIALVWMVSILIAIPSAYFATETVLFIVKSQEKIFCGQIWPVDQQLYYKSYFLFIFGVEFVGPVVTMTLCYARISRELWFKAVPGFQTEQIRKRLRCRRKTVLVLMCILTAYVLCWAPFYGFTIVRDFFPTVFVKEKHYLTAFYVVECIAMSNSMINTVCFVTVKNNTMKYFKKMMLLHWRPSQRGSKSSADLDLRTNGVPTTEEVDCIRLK
Chain of 168 GPCRs (Homo sapiens, UniProt P29371) (P29371 whole entry): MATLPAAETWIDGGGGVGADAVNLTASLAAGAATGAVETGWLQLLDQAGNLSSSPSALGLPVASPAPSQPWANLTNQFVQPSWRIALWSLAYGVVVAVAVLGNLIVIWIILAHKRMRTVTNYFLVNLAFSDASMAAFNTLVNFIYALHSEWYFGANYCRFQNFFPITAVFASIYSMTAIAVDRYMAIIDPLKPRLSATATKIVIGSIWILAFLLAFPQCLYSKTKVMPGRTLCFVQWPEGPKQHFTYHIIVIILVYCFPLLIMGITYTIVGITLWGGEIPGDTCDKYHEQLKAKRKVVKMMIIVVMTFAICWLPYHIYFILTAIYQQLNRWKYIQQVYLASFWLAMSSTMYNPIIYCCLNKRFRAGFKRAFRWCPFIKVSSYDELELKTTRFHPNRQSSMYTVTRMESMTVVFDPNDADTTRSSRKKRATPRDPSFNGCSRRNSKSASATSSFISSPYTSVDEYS
Chain of 168 GPCRs (Homo sapiens, UniProt P41586) (P41586 21-468): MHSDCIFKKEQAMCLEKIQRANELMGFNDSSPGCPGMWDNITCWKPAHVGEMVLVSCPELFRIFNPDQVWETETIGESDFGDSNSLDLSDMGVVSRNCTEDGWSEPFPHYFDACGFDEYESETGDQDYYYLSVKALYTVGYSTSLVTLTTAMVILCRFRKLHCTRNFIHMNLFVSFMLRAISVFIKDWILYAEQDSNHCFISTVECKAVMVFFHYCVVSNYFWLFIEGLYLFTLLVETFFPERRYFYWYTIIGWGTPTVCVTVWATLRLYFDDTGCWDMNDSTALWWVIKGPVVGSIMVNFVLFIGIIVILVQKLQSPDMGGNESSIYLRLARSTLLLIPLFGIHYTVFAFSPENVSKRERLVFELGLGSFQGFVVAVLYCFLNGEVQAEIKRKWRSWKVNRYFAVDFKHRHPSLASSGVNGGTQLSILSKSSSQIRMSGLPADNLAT

CNC(C)C(=O)c1ccc2c(c1)OCO2 (centres unmarked) [methylone, 3,4-methylenedioxy-N-methylcathinone]
activity at 1 µM (168 GPCRs [1]): 6.4% | activity at 10 µM (168 GPCRs [2]): ~15% | activity at 1 µM (168 GPCRs [3]): ~13% | activity at 10 µM (168 GPCRs [4]): ~32% | activity at 10 µM (168 GPCRs [5]): -2.6% | activity at 10 µM (168 GPCRs [6]): ~3% | activity at 10 µM (168 GPCRs [7]): 8.8% | activity at 1 µM (168 GPCRs [8]): ~9% | activity at 10 µM (168 GPCRs [9]): ~-14% | activity at 1 µM (168 GPCRs [10]): ~6% | activity at 10 µM (168 GPCRs [11]): -6.8% | activity at 10 µM (168 GPCRs [12]): -2.2% | activity at 1 µM (168 GPCRs [13]): ~-11% | activity at 10 µM (168 GPCRs [14]): ~7% | activity at 10 µM (168 GPCRs [15]): -0.3% | activity at 10 µM (168 GPCRs [16]): -13.6% | activity at 10 µM (168 GPCRs [17]): ~-2% | activity at 1 µM (168 GPCRs [18]; 1 uM): ~-8% | activity at 10 µM (168 GPCRs [18]; 10 uM): -3.3% | activity at 1 µM (168 GPCRs [19]): 25.7% | activity at 10 µM (168 GPCRs [20]): ~7% | activity at 1 µM (168 GPCRs [21]): ~-4% | activity at 10 µM (168 GPCRs [22]): -16.2% | activity at 1 µM (168 GPCRs [23]): ~-10% | activity at 10 µM (168 GPCRs [24]): ~1% | activity at 10 µM (168 GPCRs [25]): -38.3%
